What is called IC50 is the concentration needed to halve the response being measured.

Each structure is given as a SMILES string. Counter-ions that a name gives are not always drawn. Where only a bound is given, the exact number is not on record here.

Results on 23 molecules are retold here after US10112926B2 (priority 2014, dated 2018).

Chain of Vps34 (Q8NEB9 whole entry): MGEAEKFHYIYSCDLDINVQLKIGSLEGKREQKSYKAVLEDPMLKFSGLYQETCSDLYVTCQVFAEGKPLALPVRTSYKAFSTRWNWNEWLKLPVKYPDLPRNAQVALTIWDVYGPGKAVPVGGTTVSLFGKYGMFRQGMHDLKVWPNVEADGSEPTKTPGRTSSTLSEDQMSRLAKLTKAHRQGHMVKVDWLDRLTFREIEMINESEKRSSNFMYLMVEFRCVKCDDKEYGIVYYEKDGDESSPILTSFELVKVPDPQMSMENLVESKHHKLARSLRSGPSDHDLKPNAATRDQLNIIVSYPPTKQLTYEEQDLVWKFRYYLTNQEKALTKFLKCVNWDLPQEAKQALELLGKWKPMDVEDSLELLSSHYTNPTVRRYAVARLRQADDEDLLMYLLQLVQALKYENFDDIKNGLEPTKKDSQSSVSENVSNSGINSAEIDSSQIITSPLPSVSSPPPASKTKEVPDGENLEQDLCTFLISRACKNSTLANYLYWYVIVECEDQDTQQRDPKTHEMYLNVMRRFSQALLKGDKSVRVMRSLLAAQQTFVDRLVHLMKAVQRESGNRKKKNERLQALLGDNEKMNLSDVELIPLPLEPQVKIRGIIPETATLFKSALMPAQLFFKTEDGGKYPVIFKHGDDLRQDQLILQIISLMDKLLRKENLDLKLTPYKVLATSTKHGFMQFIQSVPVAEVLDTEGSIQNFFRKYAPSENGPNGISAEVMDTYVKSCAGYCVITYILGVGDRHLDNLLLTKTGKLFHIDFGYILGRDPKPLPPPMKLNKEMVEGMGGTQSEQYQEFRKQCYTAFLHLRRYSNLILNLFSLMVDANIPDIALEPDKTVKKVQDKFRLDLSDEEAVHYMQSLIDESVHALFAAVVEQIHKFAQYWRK

One test addresses Vps34 (Homo sapiens (Human), UniProt Q8NEB9). The note with it: read-out: Assay C VPS34 IC50.
In the case of `Cc1cc(-c2cc(-c3cc(S(=O)(=O)N[C@@H]4CNC[C@H]4O)ccc3C)cnc2N)on1` [Example 19.4, 3-(6-amino-5-(3-methylisoxazol-5-yl)pyridin-3-yl)-N-(trans-4-hydroxypyrrolidin-3-yl)-4-methylbenzenesulfon-amide acetic acid salt], the IC50 is over 10 µM.
The same measure, in the same setting: then `Cc1noc(-c2cc(-c3cc(S(=O)(=O)NCC(C)(C)O)c(Cl)cc3C)cnc2N)n1` [Example 89, 5-(6-Amino-5-(3-methyl-1,2,4-oxadiazol-5-yl)pyridin-3-yl)-2-chloro-N-(2-hydroxy-2-methylpropyl)-4-methylbenzenesulfonamide], with over 10 µM; and `Cc1cc(-c2cc(-c3cc(S(=O)(=O)N4CCOC[C@H]4C)ccc3C)cnc2N)on1` [Example 19.6, (R)-5-(2-methyl-5-((3-methylmorpholino)sulfon-yl)phenyl)-3-(3-methylisoxazol-5-yl)pyridin-2-amine trifluoroacetic acid salt], with over 10 µM; and `Cc1cc(-c2cc(-c3cc(S(=O)(=O)NC4CCOCC4)ccc3C)cnc2N)on1` [Example 37.8, 3-(6-Amino-5-(3-methylisoxazol-5-yl)pyridin-3-yl)-4-methyl-N-(tetrahydro-2H-pyran-4-yl)benzenesulfonamide], with over 10 µM.
Same read-out and setting: under `Cc1cc(-c2cc(-c3cc(S(=O)(=O)N[C@H]4CC[C@H](N)CC4)ccc3C)cnc2N)on1` [Example 19.3, 3-(6-amino-5-(3-methylisoxazol-5-yl)pyridin-3-yl)-N-(trans-4-aminocyclohexyl)-4-methylbenzenesulfon-amide acetic acid salt] stands over 10 µM.
As to `CCN1CCC[C@@H]1CNS(=O)(=O)c1ccc(C)c(-c2cnc(N)c(-c3cc(C)no3)c2)c1` [Example 37.27, (R)-3-(6-Amino-5-(3-methylisoxazol-5-yl)pyridin-3-yl)-N-((1-ethylpyrrolidin-2-yl)methyl)-4-methylbenzenesulfonamide], the IC50 was over 10 µM.
The same measure, in the same setting: then `Cc1noc(-c2cc(-c3cc(S(=O)(=O)NC[C@H]4CCOC4)ccc3C)cnc2N)n1` [Example 86, (R)-3-(6-Amino-5-(3-methyl-1,2,4-oxadiazol-5-yl)pyridin-3-yl)-4-methyl-N-((tetrahydrofuran-3-yl)methyl)benzenesulfonamide], with over 10 µM; and `Cc1ccc(S(=O)(=O)NCC(C)(C)O)cc1-c1cnc(N)c(-c2cnco2)c1` [Example 94a, 3-(6-amino-5-(oxazol-5-yl)pyridin-3-yl)-N-(2-hydroxy-2-methylpropyl)-4-methylbenzenesulfonamide], with over 10 µM.
On to `Cc1cc(-c2cc(-c3cc(S(=O)(=O)N4CCCC(C)(O)CC4)ccc3C)cnc2N)on1` (centres unmarked) [Example 19.21, 1-((3-(6-amino-5-(3-methylisoxazol-5-yl)pyridin-3-yl)-4-methylphenyl)sulfonyl)-4-methylazepan-4-ol trifluoroacetic acid salt], for which the IC50 was over 10 µM.
Consider `Cc1cc(-c2cc(-c3cc(S(=O)(=O)NCCC4(O)CCCCC4)ccc3C)cnc2N)on1` [Example 37.30, 3-(6-Amino-5-(3-methylisoxazol-5-yl)pyridin-3-yl)-N-(2-(1-hydroxycyclohexyl)ethyl)-4-methylbenzenesulfonamide], for which the IC50 is over 10 µM.
On the same count and under the same terms, under `Cc1ccc(S(=O)(=O)NOCC(C)(C)O)cc1-c1cnc(N)c(-c2cnn(CC(F)(F)F)c2)c1` [Example 34, 3-(6-Amino-5-(1-(2,2,2-trifluoroethyl)-1H-pyrazol-4-yl)pyridin-3-yl)-N-(2-hydroxy-2-methylpropoxy)-4-methylbenzenesulfonamide hydrochloride] stands over 10 µM; under `Cc1cc(-c2cc(-c3cc(S(=O)(=O)NCC4(O)CC4)ccc3C)cnc2N)on1` [Example 19.10, 3-(6-amino-5-(3-methylisoxazol-5-yl)pyridin-3-yl)-N-((1-hydroxycyclopropyl)methyl)-4-methylbenzenesulfon-amide trifluoroacetic acid salt], over 10 µM; under `Cc1cc(-c2cc(-c3cc(S(=O)(=O)NCC4(O)CCCC4)ccc3C)cnc2N)on1` [Example 53, 3-(6-Amino-5-(3-methylisoxazol-5-yl)pyridin-3-yl)-N-((1-hydroxycyclopentyl)methyl)-4-methylbenzenesulfonamide], over 10 µM.
As for `Cc1ncc(-c2cc(-c3cc(S(=O)(=O)NCC(F)F)ccc3C)cnc2N)o1` [Example 104.10, 3-(6-amino-5-(2-methyloxazol-5-yl)pyridin-3-yl)-N-(2,2-difluoroethyl)-4-methylbenzenesulfon-amide], the IC50 was 1.5 µM.
On the same count and under the same terms, under `Cc1cc(-c2cc(-c3cc(S(=O)(=O)NCC4(O)CCOCC4)ccc3C)cnc2N)on1` [Example 54, 3-(6-Amino-5-(3-methylisoxazol-5-yl)pyridin-3-yl)-N-((4-hydroxytetrahydro-2H-pyran-4-yl)methyl)-4-methylbenzenesulfonamide] stands over 10 µM; under `Cc1cc(-c2cc(-c3cc(S(=O)(=O)NCC4(CO)CCCC4)ccc3C)cnc2N)on1` [Example 37.23, 3-(6-Amino-5-(3-methylisoxazol-5-yl)pyridin-3-yl)-N-((1-(hydroxymethyl)cyclopentyl)methyl)-4-methylbenzenesulfonamide], over 10 µM.

The target in the next test is PI 4-kinase beta (Homo sapiens (Human), UniProt Q9UBF8). The note with it: read-out: Assay D PI4Kβ IC50.
Chain of PI 4-kinase beta (Q9UBF8 whole entry): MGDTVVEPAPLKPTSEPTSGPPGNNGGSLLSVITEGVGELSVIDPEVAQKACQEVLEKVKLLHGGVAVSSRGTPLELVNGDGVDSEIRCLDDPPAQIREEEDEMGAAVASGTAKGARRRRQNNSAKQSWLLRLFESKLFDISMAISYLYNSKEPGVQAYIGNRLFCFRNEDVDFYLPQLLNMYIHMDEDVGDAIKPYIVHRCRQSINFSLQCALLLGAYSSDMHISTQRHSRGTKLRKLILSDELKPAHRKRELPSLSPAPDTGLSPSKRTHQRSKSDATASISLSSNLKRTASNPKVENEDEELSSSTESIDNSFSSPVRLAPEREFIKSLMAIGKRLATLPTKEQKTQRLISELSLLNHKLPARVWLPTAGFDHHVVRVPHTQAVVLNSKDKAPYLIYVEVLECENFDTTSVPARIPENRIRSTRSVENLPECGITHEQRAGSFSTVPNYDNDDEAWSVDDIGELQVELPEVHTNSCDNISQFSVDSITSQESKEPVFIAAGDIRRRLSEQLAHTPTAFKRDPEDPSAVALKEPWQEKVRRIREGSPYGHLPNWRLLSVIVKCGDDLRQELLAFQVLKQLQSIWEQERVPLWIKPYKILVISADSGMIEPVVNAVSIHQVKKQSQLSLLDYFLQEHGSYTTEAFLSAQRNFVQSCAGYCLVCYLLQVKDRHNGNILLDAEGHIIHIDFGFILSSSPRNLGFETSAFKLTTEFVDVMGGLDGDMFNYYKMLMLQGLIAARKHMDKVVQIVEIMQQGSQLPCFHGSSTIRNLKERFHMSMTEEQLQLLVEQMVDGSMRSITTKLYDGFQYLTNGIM
On to `Cc1ncc(-c2cc(-c3cc(S(=O)(=O)NCC4CC4)ccc3C)cnc2N)o1` [Example 104.12, 3-(6-amino-5-(2-methyloxazol-5-yl)pyridin-3-yl)-N-(cyclopropylmethyl)-4-methylbenzenesulfon-amide], for which the half-inhibitory concentration (IC50) is 2.1 µM.
In the case of `Cc1ncc(-c2cc(-c3cc(S(=O)(=O)NCCO)ccc3C)cnc2N)o1` [Example 104.5, 3-(6-amino-5-(2-methyloxazol-5-yl)pyridin-3-yl)-N-(2-hydroxyethyl)-4-methylbenzenesulfon-amide], the IC50 was 3.1 µM.
On the same count and under the same terms, then `Cc1noc(-c2cc(-c3cc(S(=O)(=O)NC[C@H]4CCCO4)ccc3C)cnc2N)n1` [Example 37.5, (R)-3-(6-Amino-5-(3-methyl-1,2,4-oxadiazol-5-yl)pyridin-3-yl)-4-methyl-N-((tetrahydrofuran-2-yl)methyl)benzenesulfonamide], with 8 µM; and `Cc1cc(-c2cc(-c3cc(S(=O)(=O)N4CCNC(=O)C4)ccc3C)cnc2N)on1` [Example 19.17, 4-((3-(6-amino-5-(3-methylisoxazol-5-yl)pyridin-3-yl)-4-methylphenyl)sulfonyl) piperazin-2-one trifluoroacetic acid salt], with 1.4 µM.
Take `Cc1noc(-c2cc(-c3cc(S(=O)(=O)NC(CO)C4CCOC4)ccc3C)cnc2N)n1` (centres unmarked) [Example 37.21, 3-(6-Amino-5-(3-methyl-1,2,4-oxadiazol-5-yl)pyridin-3-yl)-N-(2-hydroxy-1-(tetrahydrofuran-3-yl)ethyl)-4-methylbenzenesulfonamide]: the IC50 was over 10 µM.
Still for that read-out and setting: then `Cc1cc(-c2cc(-c3cc(S(=O)(=O)N4CCCC4(C)C)ccc3C)cnc2N)on1` [Example 19.9, 5-(5-((2,2-dimethylpyrrolidin-1-yl)sulfonyl)-2-methylphenyl)-3-(3-methylisoxazol-5-yl)pyridin-2-amine trifluoroacetic acid salt], with 1.9 µM; and `Cc1ncc(-c2cc(-c3cc(S(=O)(=O)NCC(C)(C)CO)ccc3C)cnc2N)o1` [Example 104.2, 3-(6-amino-5-(2-methyloxazol-5-yl)pyridin-3-yl)-N-(3-hydroxy-2,2-dimethylpropyl)-4-methylbenzenesulfon-amide], with 1.1 µM.
